In article PMC3811480, “The R Enantiomer of the Antitubercular Drug PA-824 as a Potential Oral Treatment for Visceral Leishmaniasis” (Antimicrobial Agents and Chemotherapy, 2013):
“And” between values parts separate entries of the source, which are not always exact repeats. Equal values may be shown once. “Also recorded” adds a separate entry of the source. Read-outs that look alike come from different tables or passages of the source.

Assays:
[1] = system: T. cruzi amastigotes in Vero cells; assay: In-Vero-cell T. cruzi drug sensitivity assay (72 h, high-content imaging); format: cell-based; conditions: Trypanosoma cruzi; T. cruzi amastigote (in Vero cell)
[2] = Tolerability in mice during the efficacy study; format: in vivo, BALB/c mice; conditions: 30 or 100 mg kg^−1 orally twice daily for 5 days
Description: All animal experiments were approved by the University Ethical Review Committee and performed under the Animals (Scientific Procedures) Act 1986 in accordance with the European Communities Council Directive (86/609/EEC). Groups of female BALB/c mice (5 per group) were inoculated intravenously with approximately 2 × 10^7 L. donovani amastigotes (LV9; WHO designation MHOM/ET/67/HU3) harvested from the spleen of an infected hamster ([24]). […] Drug dosing solutions were prepared fresh each day, and the vehicle for both enantiomers of PA-824 was 10% (vol/vol) dimethyl sulfoxide (DMSO), 40% polyethylene glycol 400, and 50% deionized water. On day 14 postinfection, all animals were humanely euthanized and parasite burdens were determined by counting the number of amastigotes/500 liver cells ([11]). Parasite burden is expressed in Leishmania donovani units (LDU), mean number of amastigotes per liver cell × mg weight of liver ([25]).

[3] = system: Leishmania donovani LdBOB promastigotes; assay: In vitro drug sensitivity assay, L. donovani promastigotes (72 h, resazurin); format: cell-based; conditions: for EC50: Leishmania donovani; for activity against L. donovani promastigotes: highest concentration tested 50 μM
[4] = system: Trypanosoma cruzi Silvio-X10/7 clone A1 epimastigotes; assay: In vitro drug sensitivity assay, T. cruzi epimastigotes (72 h, resazurin); format: cell-based; conditions: T. cruzi epimastigote
[5] = system: L. donovani intracellular amastigotes in mouse peritoneal macrophages; assay: In-macrophage drug sensitivity assay; format: cell-based, Leishmania donovani; conditions: for EC50: L. donovani amastigote (in macrophage); for activity against L. donovani intracellular amastigotes: highest concentration tested 50 μM
in vitro = conditions: mouse, plasma
[6] = system: T. brucei bloodstream forms (S427 Single Marker); assay: In vitro drug sensitivity assay, bloodstream-form T. brucei; format: cell-based; conditions: Trypanosoma brucei
[7] = system: promastigotes of the LdBOB strain of L. donovani; assay: Drug combination studies (fixed-ratio isobologram, 72 h); format: cell-based, Leishmania donovani; conditions: for EC50: Leishmania donovani, compound alone, duplicate cultures, read-out: Absolute EC50
Description: The EC50s of each combination were determined after 72 h and plotted as an isobologram ([23]).

[8] = system: Mycobacterium tuberculosis; design: method as in PMID 22023140; conditions: cited from earlier work
HepG2 cells = assay: HepG2 counterscreen (resazurin); format: cell-based; conditions: Homo sapiens; Mammalian (HepG2); n = 2
[9] = mouse liver microsomes, 0.5 μM compound
[10] = system: Trypanosoma brucei brucei S427 29-13 procyclic trypomastigotes; assay: In vitro drug sensitivity assay, T. brucei procyclics (72 h, resazurin); format: cell-based
[11] = Exposure in mice after acute oral dosing (blood levels, UPLC-MS/MS); format: in vivo, BALB/c mice; conditions: for half-life: read-out: elimination half-life (t1/2) (converted); for Tmax: read-out: time of maximum concentration in blood
Description: The R and S enantiomers of PA-824 (50 mg kg^−1) were orally administered to BALB/c mice. Blood samples (10 μl) were collected from the tail vein of each animal into sample storage tubes (Micronic BV) containing deionized water (20 μl) at defined intervals postdose and stored at −80°C until analysis. The level of each enantiomer in mouse blood was determined by UPLC-MS/MS ([20]).

[12] = system: Transgenic LdBOB promastigotes expressing the Leishmania major nitroreductase (LmjF.05.0660); assay: microbe, parasite or virus in culture; format: cell-based, Leishmania donovani; conditions: for EC50: Leishmania major, read-out: EC50 against NTR-overexpressing promastigotes
[13] = system: L. donovani amastigotes (LV9); assay: In vivo drug sensitivity, mouse model of visceral leishmaniasis (liver parasite burden); design: species or system Leishmania donovani; conditions: for suppression of infection (liver parasite burden) compared to untreated controls / suppression of infection (liver parasite burden): BALB/c mice; for suppression of infection (liver parasite burden) compared to untreated controls: 30 mg kg^−1 orally twice daily for 5 days
LdBOB promastigotes = assay: PA-824-mediated cell killing (time to kill, wash-out viability); format: cell-based, Leishmania donovani; conditions: 10 times EC50, promastigotes
[14] = mouse PPB, equilibrium dialysis
[15] = system: T. brucei bloodstream forms (S427 Single Marker); conditions: previously determined value; cited from earlier work
[16] = system: L. donovani intracellular amastigotes in mouse peritoneal macrophages; conditions: comparator value, earlier work of the authors; cited from earlier work
[17] = system: lab-generated strains of nifurtimox-resistant T. brucei; conditions: cited from earlier work
[18] = L. donovani promastigote, read-out: EC50
[19] = Leishmania donovani, Peritoneal macrophage
[20] = Leishmania donovani, Peritoneal macrophage, L. donovani in macrophages, from EC50 and Hill slope, read-out: EC90
[21] = fixed-ratio isobologram, promastigotes
[22] = BALB/c, mouse, whole blood, 50 mg kg^−1 oral
[23] = 100 mg kg^−1 orally twice daily for 5 days
[24] = WT LdBOB promastigotes, nitroreductase experiment (Fig. 2), read-out: EC50 against wild-type (WT) promastigotes

Compound: O=[N+]([O-])c1cn2c(n1)OC[C@H](OCc1ccc(OC(F)(F)F)cc1)C2 [(R)-PA-824]
- EC50 [1]: 4.4 ± 0.5 µM
- tolerability in mice [2]: extremely well tolerated
- EC50 [3, 18]: 0.16 ± 0.03 µM
- EC50 [4]: 0.7 ± 0.08 µM
- EC50 [5]: 0.93 ± 0.06 µM
- EC50 [5, 19]: 0.9 ± 0.1 µM
- EC90 [5, 20]: 3.4 µM
- EC90 ([5]; Leishmania donovani, Peritoneal macrophage, not adjusted for plasma protein binding, read-out: EC90 (equivalent mass concentration)): 1.2 µg/mL
- fraction unbound (in vitro): 0.22
- EC50 [6]: 14.9 ± 0.7 µM
- EC50 ([7]; Fig. 3A experiment): 0.18 µM
- EC50 ([7]; Fig. 3B experiment): 0.1 µM
- interaction in combination with (S)-PA-824 [7, 21]: mild antagonistic behavior; also recorded: progressively more antagonistic; also recorded: mildly antagonistic
- interaction in combination with fexinidazole sulfone [7, 21]: act additively; also recorded: additive effect
- MIC [8]: > 100 µM
- EC50 (HepG2 cells): > 50 µM
- CLint [9]: 0.65 mL/min/g
- EC50 [10]: 25 ± 0.2 µM
- oral bioavailability [11]: orally bioavailable
- maximum concentration in blood ([11]; 50 mg kg^−1 oral): 10,500 ng ml^−1
- half-life [11, 22]: ~2 h
- Tmax [11, 22]: 4 h
- EC50 [12]: 0.11 ± 0.005 µM
- solubility (physchem): > 250 µM
- suppression of infection (liver parasite burden) compared to untreated controls [13]: approximately 35%
- suppression of infection (liver parasite burden) [13, 23]: > 99% and 99.9%
- cytocidal or cytostatic (LdBOB promastigotes): leishmanicidal rather than cytostatic; also recorded: cytocidal rather than cytostatic
- time after which cell numbers begin to decline (LdBOB promastigotes): 12 h
- time at which no intact/live parasites remain (LdBOB promastigotes): 24 h

Compound: FC(F)(F)Oc1ccc(CO[C@H]2COc3nccn3C2)cc1 [(R)-des-nitro-PA-824]
- activity against L. donovani promastigotes [3]: inactive
- activity against L. donovani intracellular amastigotes [5]: inactive
- fraction unbound (plasma protein binding) [14]: 0.45

Compound: O=[N+]([O-])c1cn2c(n1)OC[C@@H](OCc1ccc(OC(F)(F)F)cc1)C2 [(S)-PA-824, reference compound]
- EC50 [1]: > 30 µM
- tolerability in mice [2]: extremely well tolerated
- EC50 [3, 18]: 0.9 ± 0.1 µM
- EC50 [3, 24]: 0.96 ± 0.02 µM
- EC50 [4]: 3.4 ± 0.03 µM
- EC50 [5]: 4.92 ± 0.3 µM
- EC50 [5, 19]: 4.9 ± 0.3 µM
- EC90 [5, 20]: 22 µM
- fraction unbound (in vitro): 0.21
- EC50 [15]: 37.8 ± 3.2 µM
- EC50 ([7]; Fig. 3B experiment): 0.74 µM
- EC50 (HepG2 cells): > 50 µM
- CLint [9]: 1.6 mL/min/g
- EC50 [10]: 36.5 ± 2.5 µM
- oral bioavailability [11]: orally bioavailable
- maximum concentration in blood ([11]; 50 mg kg^−1 oral): 11,600 ng ml^−1
- concentration at 24 h ([11]; BALB/c, mouse, whole blood, 50 mg kg^−1 oral, 24 h): 900 ng/mL
- half-life [11, 22]: ~5 h
- Tmax [11, 22]: 4 h
- EC50 [12]: 0.8 ± 0.04 µM
- solubility (physchem): > 250 µM
- suppression of infection (liver parasite burden) compared to untreated controls [13]: approximately 35%
- suppression of infection (liver parasite burden) [13, 23]: comparable to those seen in drug-free animals; also recorded: less efficacious
- dose dependence of leishmanicidal effect ([13]; earlier in vivo study, range of doses down to 0.4 mg kg^−1, twice daily orally (Fig. S1)): apparent absence of a dose-dependent leishmanicidal effect
- cytocidal or cytostatic (LdBOB promastigotes): leishmanicidal rather than cytostatic
- time after which cell numbers begin to decline (LdBOB promastigotes): 12 h
- time at which no intact/live parasites remain (LdBOB promastigotes): 36 h

Compound: FC(F)(F)Oc1ccc(CO[C@@H]2COc3nccn3C2)cc1 [(S)-des-nitro-PA-824]
- activity against L. donovani promastigotes [3]: inactive
- activity against L. donovani intracellular amastigotes [5]: inactive

Compound: Cn1c([N+](=O)[O-])cnc1COc1ccc(S(C)(=O)=O)cc1 [fexinidazole sulfone, reference compound]
- EC50 [16]: 5.3 µM
- EC50 ([7]; Fig. 3A experiment): 8.8 µM

Compound: CSc1ccc(OCc2ncc([N+](=O)[O-])n2C)cc1 [fexinidazole]
- sensitivity of nifurtimox-resistant T. brucei [17]: cross resistant

Compound: CCCCCCCCCCCCCCCCOP(=O)([O-])OCC[N+](C)(C)C [miltefosine]
- suppression of infection (liver parasite burden) ([13]; 12 mg kg^−1 orally once daily for 5 days): 68.7%

Compound: CC1CS(=O)(=O)CCN1/N=C/c1ccc([N+](=O)[O-])o1 (stereo not drawn) [nifurtimox]
- EC50 [3, 24]: 5.6 ± 0.16 µM
- EC50 [12]: 0.2 ± 0.09 µM
- increase in sensitivity of nitroreductase-overexpressing parasites ([12]; transgenic versus wild-type): 26 fold

Compound: O.O.O.O.O.O.O.O.O.O=C([O-])[C@@H]1[O][Sb](=[O])([O][Sb]2(=[O])[O][C@H]([C@H](O)CO)[C@H](O)[C@H](C(=O)[O-])[O]2)[O][C@H]([C@H](O)CO)[C@@H]1O.[Na+].[Na+].[Na+] (stereo partly drawn) [sodium stibogluconate]
- suppression of infection (liver parasite burden) ([13]; 15 mg kg^−1 subcutaneously once daily for 5 days): 41.9%
